Measurements as given in patent US20230365546A1, “5-SUBSTITUTED INDOLE 3-AMIDE DERIVATIVES, PREPARATION METHOD AND USE THEREOF” (ORIGIANT PHARMACEUTICAL CO., LTD, priority 2020, published 2023).
Like-named read-outs stand apart in the source and are kept apart here.

Legend:
[1] = test system: HT-29 cells; experiment: Protection against programmed necrosis of HT-29 cells (TNF α/Smac mimetic/Z-VAD-FMK, CCK8); assay type: cell-based; conditions: Homo sapiens
[2] = target: Fgr(h) (Homo sapiens (Human), UniProt P09769); experiment: Kinase Profiler 10 μM panel
Method: (§1) In vitro kinase assays were conducted using Kinase Profiler services provided by Eurofins. The experimental method was as follows: the small molecule compound to be tested (0.001-10 μM), the protein kinase to be tested were incubated with a buffer containing substrate, 10 mM magnesium acetate, and [γ-^33P-ATP], the reaction was started by adding Mg\TPmix, after incubation for a period of time at room temperature, a 3% phosphate solution was added to the buffer to stop the reaction. Subsequently, 10 μL of the reaction mixture was quantitatively pipetted onto P30 filter paper, which was washed three times with 75 mM phosphate solution and then once with methanol. The P30 filter paper was air-dried and scintillation fluid was added for scintillation counting.

[3] = target: Fyn(h) (Homo sapiens (Human), UniProt P06241); experiment: Kinase Profiler 10 μM panel
Method: as §1

[4] = target: GSK3α(h) (Homo sapiens (Human), UniProt P49840); experiment: Kinase Profiler 10 μM panel
Method: as §1

[5] = target: PIP4K2a(h) (Homo sapiens (Human), UniProt P48426); experiment: Kinase Profiler 10 μM panel
Method: as §1

[6] = target: ARK5(h) (Homo sapiens (Human), UniProt O60285); experiment: Kinase Profiler 10 μM panel
Method: as §1

[7] = target: PKA(h) (Homo sapiens (Human), UniProt P17612); experiment: Kinase Profiler 10 μM panel
Method: as §1

[8] = target: PRK2(h) (Homo sapiens (Human), UniProt Q16513); experiment: Kinase Profiler 10 μM panel
Method: as §1

[9] = target: Pyk2(h) (Homo sapiens (Human), UniProt Q14289); experiment: Kinase Profiler 10 μM panel
Method: as §1

[10] = target: MAP4K3(h) (Homo sapiens (Human), UniProt Q8IVH8); experiment: Kinase Profiler 10 μM panel
Method: as §1

[11] = target: MAP4K4(h) (Homo sapiens (Human), UniProt O95819); experiment: Kinase Profiler 10 μM panel
Method: as §1

[12] = target: MAPK1(h) (Homo sapiens (Human), UniProt P27361); experiment: Kinase Profiler 10 μM panel
Method: as §1

[13] = target: Rsk1(h) (Homo sapiens (Human), UniProt Q15418); experiment: Kinase Profiler 10 μM panel
Method: as §1

[14] = target: MARK3(h) (Homo sapiens (Human), UniProt P27448); experiment: Kinase Profiler 10 μM panel
Method: as §1

[15] = target: SIK(h) (Homo sapiens (Human), UniProt P57059); experiment: Kinase Profiler 10 μM panel
Method: as §1

[16] = target: Met(Y1248C)(h) (Homo sapiens (Human), UniProt P08581, Y1230C); experiment: Kinase Profiler 10 μM panel
Method: as §1

[17] = target: SIK2(h) (Homo sapiens (Human), UniProt Q9H0K1); experiment: Kinase Profiler 10 μM panel
Method: as §1

[18] = target: CLK2(h) (Homo sapiens (Human), UniProt P49760); experiment: Kinase Profiler 10 μM panel
Method: as §1

[19] = target: STK33(h) (Homo sapiens (Human), UniProt Q9BYT3); experiment: Kinase Profiler 10 μM panel
Method: as §1

[20] = target: MSK2(h) (Homo sapiens (Human), UniProt O75676); experiment: Kinase Profiler 10 μM panel
Method: as §1

[21] = target: TAK1(h) (Homo sapiens (Human), UniProt O43318); experiment: Kinase Profiler 10 μM panel
Method: as §1

[22] = target: MST2(h) (Homo sapiens (Human), UniProt Q13188); experiment: Kinase Profiler 10 μM panel
Method: as §1

[23] = target: NEK7(h) (Homo sapiens (Human), UniProt Q8TDX7); experiment: Kinase Profiler 10 μM panel
Method: as §1

[24] = target: TSSK1(h) (Homo sapiens (Human), UniProt Q9BXA7); experiment: Kinase Profiler 10 μM panel
Method: as §1

[25] = target: EGFR(T790M)(h) (Homo sapiens (Human), UniProt P00533, T790M); experiment: Kinase Profiler 10 μM panel
Method: as §1

[26] = target: EphA5(h) (Homo sapiens (Human), UniProt P54756); experiment: Kinase Profiler 10 μM panel
Method: as §1

[27] = target: PDGFRβ(h) (Homo sapiens (Human), UniProt P09619); experiment: Kinase Profiler 10 μM panel
Method: as §1

[28] = target: Fes(h) (Homo sapiens (Human), UniProt P07332); experiment: Kinase Profiler 10 μM panel
Method: as §1

[29] = TNF α/Smac mimetic/Z-VAD-FMK induced 24 h, CCK8, read-out: HT-29 (EC50)
[30] = TSZ-induced, FIG. 3, read-out: EC50 value, programmed necrosis model of HT-29

MAP4K4(h), sequence (O95819 whole entry): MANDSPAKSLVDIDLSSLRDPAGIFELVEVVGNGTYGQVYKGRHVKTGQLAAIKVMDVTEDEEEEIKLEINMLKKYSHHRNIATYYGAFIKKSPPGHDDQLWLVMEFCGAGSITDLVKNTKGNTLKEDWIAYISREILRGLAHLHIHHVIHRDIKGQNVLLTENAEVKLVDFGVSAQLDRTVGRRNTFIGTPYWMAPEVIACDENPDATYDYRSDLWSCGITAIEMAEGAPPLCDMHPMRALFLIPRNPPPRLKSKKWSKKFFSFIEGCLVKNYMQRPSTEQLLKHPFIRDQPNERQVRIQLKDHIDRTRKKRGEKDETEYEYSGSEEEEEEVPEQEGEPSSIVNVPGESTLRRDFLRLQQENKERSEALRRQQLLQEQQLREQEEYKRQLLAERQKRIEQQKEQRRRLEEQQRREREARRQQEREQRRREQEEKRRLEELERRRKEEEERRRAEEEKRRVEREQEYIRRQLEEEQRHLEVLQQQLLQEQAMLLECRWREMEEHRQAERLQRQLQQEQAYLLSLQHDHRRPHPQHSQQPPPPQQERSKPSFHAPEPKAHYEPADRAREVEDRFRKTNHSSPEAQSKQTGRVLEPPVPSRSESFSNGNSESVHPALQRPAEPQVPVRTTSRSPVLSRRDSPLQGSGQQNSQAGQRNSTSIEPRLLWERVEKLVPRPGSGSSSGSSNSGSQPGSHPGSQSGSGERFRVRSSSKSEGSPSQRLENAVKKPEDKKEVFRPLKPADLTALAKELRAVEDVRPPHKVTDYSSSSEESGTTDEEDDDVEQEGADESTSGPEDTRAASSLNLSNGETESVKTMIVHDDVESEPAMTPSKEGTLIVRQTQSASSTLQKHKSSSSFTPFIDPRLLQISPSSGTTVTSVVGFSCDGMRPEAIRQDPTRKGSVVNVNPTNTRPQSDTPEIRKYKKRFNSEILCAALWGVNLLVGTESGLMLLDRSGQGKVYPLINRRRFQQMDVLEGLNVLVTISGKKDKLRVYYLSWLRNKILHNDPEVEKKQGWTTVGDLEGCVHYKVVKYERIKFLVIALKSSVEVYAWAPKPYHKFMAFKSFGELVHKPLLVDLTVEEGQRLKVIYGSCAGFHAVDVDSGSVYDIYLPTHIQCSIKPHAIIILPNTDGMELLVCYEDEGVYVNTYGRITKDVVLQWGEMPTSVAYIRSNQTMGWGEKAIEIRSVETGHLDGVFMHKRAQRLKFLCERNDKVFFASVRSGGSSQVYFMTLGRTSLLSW
CLK2(h), sequence (P49760 whole entry): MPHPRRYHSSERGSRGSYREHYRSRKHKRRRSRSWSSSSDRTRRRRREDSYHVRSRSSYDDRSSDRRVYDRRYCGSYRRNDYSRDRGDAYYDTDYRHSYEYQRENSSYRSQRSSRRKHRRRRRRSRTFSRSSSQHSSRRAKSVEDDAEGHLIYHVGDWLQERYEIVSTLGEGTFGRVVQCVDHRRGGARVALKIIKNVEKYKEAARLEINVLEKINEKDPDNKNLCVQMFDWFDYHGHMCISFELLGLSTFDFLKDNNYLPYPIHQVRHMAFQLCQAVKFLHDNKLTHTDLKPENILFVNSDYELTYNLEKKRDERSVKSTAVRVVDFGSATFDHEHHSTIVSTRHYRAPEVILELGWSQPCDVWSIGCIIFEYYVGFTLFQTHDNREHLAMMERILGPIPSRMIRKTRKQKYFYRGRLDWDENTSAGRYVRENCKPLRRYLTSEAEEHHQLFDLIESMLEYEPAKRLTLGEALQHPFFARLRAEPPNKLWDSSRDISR
STK33(h), sequence (Q9BYT3 whole entry): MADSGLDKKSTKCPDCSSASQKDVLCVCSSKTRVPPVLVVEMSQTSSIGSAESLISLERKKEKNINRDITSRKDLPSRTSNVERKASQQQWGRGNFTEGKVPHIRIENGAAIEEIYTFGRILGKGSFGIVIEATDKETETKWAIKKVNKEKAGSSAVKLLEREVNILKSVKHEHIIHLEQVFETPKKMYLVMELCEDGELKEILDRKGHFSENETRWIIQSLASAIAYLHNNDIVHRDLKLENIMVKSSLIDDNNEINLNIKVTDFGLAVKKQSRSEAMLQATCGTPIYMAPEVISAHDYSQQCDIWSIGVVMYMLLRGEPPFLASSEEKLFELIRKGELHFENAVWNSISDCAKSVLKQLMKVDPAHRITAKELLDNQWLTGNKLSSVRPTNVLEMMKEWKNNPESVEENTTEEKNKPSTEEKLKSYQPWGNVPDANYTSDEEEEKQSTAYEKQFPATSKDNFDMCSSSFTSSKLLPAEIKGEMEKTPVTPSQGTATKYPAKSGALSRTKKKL
PIP4K2a(h), sequence (P48426 whole entry): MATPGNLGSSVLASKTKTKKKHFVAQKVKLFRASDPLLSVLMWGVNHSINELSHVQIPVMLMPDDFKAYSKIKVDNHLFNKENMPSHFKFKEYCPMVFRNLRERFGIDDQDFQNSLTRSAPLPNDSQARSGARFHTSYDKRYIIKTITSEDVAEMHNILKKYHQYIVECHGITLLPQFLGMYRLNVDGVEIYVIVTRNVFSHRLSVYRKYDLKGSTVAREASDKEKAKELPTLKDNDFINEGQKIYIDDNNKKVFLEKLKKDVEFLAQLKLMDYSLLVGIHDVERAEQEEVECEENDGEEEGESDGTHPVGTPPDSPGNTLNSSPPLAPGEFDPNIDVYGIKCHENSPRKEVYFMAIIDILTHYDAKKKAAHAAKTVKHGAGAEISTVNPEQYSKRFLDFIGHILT
TAK1(h), sequence (O43318 1-303): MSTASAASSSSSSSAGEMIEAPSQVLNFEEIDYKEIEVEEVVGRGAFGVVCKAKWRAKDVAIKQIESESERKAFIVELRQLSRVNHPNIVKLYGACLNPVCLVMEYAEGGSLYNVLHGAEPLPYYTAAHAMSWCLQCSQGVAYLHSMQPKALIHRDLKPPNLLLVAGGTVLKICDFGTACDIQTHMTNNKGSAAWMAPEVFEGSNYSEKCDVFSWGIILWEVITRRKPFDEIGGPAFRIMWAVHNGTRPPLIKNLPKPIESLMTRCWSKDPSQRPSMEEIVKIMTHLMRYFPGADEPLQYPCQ
TSSK1(h), sequence (Q9BXA7 whole entry): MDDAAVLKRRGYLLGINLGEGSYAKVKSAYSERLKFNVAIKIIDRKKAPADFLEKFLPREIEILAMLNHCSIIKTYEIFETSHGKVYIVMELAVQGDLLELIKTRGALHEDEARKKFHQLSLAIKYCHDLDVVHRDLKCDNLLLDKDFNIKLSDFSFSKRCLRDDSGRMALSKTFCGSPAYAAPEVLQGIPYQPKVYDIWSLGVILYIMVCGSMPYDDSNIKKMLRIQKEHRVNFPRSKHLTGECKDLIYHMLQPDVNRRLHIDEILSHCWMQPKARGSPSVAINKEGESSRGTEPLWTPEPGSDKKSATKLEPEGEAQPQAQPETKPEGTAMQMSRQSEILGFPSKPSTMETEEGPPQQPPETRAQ
PDGFRβ(h), sequence (P09619 33-1106): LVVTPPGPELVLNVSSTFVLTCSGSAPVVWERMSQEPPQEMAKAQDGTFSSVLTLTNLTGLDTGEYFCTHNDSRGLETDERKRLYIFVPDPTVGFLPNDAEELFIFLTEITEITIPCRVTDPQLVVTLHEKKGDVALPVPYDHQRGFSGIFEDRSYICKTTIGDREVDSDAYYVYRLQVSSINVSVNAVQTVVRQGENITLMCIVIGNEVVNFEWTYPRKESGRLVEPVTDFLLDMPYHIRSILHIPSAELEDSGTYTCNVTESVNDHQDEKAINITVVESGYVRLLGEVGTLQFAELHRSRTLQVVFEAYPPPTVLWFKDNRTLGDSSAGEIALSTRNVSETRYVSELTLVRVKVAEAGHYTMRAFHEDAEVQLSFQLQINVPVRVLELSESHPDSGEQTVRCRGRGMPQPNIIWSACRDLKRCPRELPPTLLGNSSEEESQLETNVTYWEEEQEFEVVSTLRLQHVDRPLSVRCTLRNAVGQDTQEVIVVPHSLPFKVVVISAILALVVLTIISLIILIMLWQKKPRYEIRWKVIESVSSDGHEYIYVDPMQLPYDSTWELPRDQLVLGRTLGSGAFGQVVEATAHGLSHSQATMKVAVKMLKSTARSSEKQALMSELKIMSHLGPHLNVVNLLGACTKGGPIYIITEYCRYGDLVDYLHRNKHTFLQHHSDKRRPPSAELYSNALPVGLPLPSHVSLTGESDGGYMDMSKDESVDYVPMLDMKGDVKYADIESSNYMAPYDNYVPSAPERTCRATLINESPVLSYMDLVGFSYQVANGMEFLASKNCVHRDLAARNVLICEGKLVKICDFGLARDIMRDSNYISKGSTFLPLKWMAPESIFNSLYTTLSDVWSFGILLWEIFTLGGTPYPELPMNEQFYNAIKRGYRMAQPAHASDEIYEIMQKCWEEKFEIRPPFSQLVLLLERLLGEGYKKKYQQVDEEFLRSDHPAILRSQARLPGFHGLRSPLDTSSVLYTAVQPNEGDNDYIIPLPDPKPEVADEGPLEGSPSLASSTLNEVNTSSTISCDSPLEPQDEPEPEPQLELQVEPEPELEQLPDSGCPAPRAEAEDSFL
Met(Y1248C)(h), sequence (P08581 956-1390 Y1230C limits assumed): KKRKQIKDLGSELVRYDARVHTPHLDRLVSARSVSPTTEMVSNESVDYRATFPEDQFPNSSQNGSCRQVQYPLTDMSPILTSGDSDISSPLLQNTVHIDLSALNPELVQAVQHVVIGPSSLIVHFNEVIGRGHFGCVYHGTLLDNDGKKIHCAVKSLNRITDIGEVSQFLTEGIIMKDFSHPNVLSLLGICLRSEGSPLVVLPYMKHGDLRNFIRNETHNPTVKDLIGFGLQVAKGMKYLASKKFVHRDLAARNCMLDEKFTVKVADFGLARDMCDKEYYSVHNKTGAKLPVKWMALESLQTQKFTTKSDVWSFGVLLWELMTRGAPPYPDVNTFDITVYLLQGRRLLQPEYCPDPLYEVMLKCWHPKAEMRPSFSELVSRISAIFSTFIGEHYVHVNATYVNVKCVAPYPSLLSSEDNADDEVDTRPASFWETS

C[C@H](NC(=O)c1cn(C)c2ccc(-c3ccn4nc(NC(=O)C5CC5)nc4c3)cc12)c1cccc(F)c1 [Compound 94, (S)-5-(2-(cyclopropanecarboxamido)-[1,2,4]triazolo[1,5-a]pyridin-7-yl)-N-(1-(3-fluorophenyl)ethyl)-1-methyl-1H-indole-3-carboxamide]
EC50 [1, 29]: < 1000 pM | EC50 [1, 30]: 12 pM | Inhibition ratio/% [2]: 8% | Inhibition ratio/% [3]: −43% | Inhibition ratio/% [4]: 48% | Inhibition ratio/% [5]: 7% | Inhibition ratio/% [6]: 8% | Inhibition ratio/% [7]: 55% | Inhibition ratio/% [8]: −4% | Inhibition ratio/% [9]: −5% | Inhibition ratio/% [10]: 28% | Inhibition ratio/% [11]: −3% | Inhibition ratio/% [12]: 33% | Inhibition ratio/% [13]: 41% | Inhibition ratio/% [14]: −3% | Inhibition ratio/% [15]: 54% | Inhibition ratio/% [16]: 11% | Inhibition ratio/% [17]: −4% | Inhibition ratio/% [18]: 77% | Inhibition ratio/% [19]: 23% | Inhibition ratio/% [20]: 9% | Inhibition ratio/% [21]: 9% | Inhibition ratio/% [22]: −14% | Inhibition ratio/% [23]: 43% | Inhibition ratio/% [24]: −8% | Inhibition ratio/% [25]: −10% | Inhibition ratio/% [26]: 4% | Inhibition ratio/% [27]: 49% | Inhibition ratio/% [28]: 54%

C[C@H](NC(=O)c1c[nH]c2ccc(-c3ccc4nc(NC(=O)C5CC5)sc4c3)cc12)c1cccc(F)c1 [Compound 34, (S)-5-(2-(cyclopropanecarboxamido)benzo[d]thiazol-6-yl)-N-(1-(3-fluorophenyl)ethyl)-1H-indole-3-carboxamide]
EC50 [1, 29]: < 1000 pM | EC50 [1, 30]: 117 pM | Inhibition ratio [2]: 42% | Inhibition ratio [3]: 43% | Inhibition ratio [4]: 10% | Inhibition ratio [5]: 17% | Inhibition ratio [6]: 43% | Inhibition ratio [7]: −12% | Inhibition ratio [8]: 0% | Inhibition ratio [9]: 45% | Inhibition ratio [10]: 95% | Inhibition ratio [11]: 98% | Inhibition ratio [12]: 25% | Inhibition ratio [13]: 37% | Inhibition ratio [14]: 0% | Inhibition ratio [15]: 21% | Inhibition ratio [16]: 99% | Inhibition ratio [17]: 39% | Inhibition ratio [18]: 77% | Inhibition ratio [19]: 4% | Inhibition ratio [20]: 23% | Inhibition ratio [21]: 45% | Inhibition ratio [22]: −9% | Inhibition ratio [23]: 4% | Inhibition ratio [24]: 12% | Inhibition ratio [25]: 40% | Inhibition ratio [26]: 40% | Inhibition ratio [27]: 9% | Inhibition ratio [28]: 26%
